Experimental data: the NIST ThermoML archive (doi:10.1016/j.fluid.2016.03.016)

Assay: mn = molality of the nth substance listed, in mol/kg
Settings: 100 kPa, Liquid, Vibrating tube method

O=C[C@H](O)[C@@H](O)[C@H](O)[C@H](O)CO [D-glucose] + O
mass density [kg/m3]
Settings	m1 = 0.04761	m1 = 0.08797	m1 = 0.09893	m1 = 0.1276	m1 = 0.1555	m1 = 0.1767	m1 = 0.2008
288.15 K	1002.39	1005.11	1005.85	–	1009.58	1010.96	1012.51
298.15 K	1000.27	1002.97	1003.7	1005.58	–	–	1010.31
308.15 K	997.256	999.92	1000.64	1002.5	1004.29	1005.64	–
318.15 K	993.41	996.056	996.767	998.624	1000.4	1001.75	1003.26

O=C[C@H](O)[C@@H](O)[C@H](O)CO [D-xylose] + O
mass density [kg/m3]
Settings	m1 = 0.05973	m1 = 0.06763	m1 = 0.09347	m1 = 0.1376	m1 = 0.1501	m1 = 0.1698	m1 = 0.1873
288.15 K	1002.39	1002.82	1004.22	1006.58	1007.24	1008.28	1009.21
298.15 K	1000.28	1000.71	1002.09	1004.43	1005.09	1006.12	1007.03
308.15 K	997.274	997.695	999.067	1001.39	1002.04	1003.07	1003.97
318.15 K	993.436	993.851	995.213	997.518	998.164	999.183	1000.08

C[NH+]1CCCC1=O.O=C[O-] [N-methyl-2-oxopyrrolidinium formate] + O
mass density [kg/m3]
Settings	288.15 K	298.15 K	308.15 K	318.15 K
m1 = 0.1	1000.87	998.697	995.571	991.633
m1 = 0.15	1001.64	999.401	996.217	992.225
m1 = 0.2	1002.42	1000.1	996.862	992.816
m1 = 0.25	1003.19	1000.81	997.508	993.408

CCC(=O)[O-].C[NH+]1CCCC1=O [N-methyl-2-oxopyrrolidinium propionate] + O
mass density [kg/m3]
Settings	288.15 K	298.15 K	308.15 K	318.15 K
m1 = 0.1	1000.28	998.097	994.976	990.978
m1 = 0.15	1000.81	998.566	995.384	991.337
m1 = 0.2	1001.35	999.034	995.792	991.696
m1 = 0.25	1001.89	999.503	996.2	992.055

O [water] + O=C[C@H](O)[C@@H](O)[C@H](O)[C@H](O)CO
Settings	mass density [kg/m3]
308.15 K, m2 = 0	994.063
